Consider 27 molecules from patent publication US6818646B2 (priority 2000, dated 2004).

Structures can show the parent of a compound that is named as a salt.

The first test concerns the target T1, PDEV (Homo sapiens, UniProt O76074).
T1 construct: PDEV was isolated from rabbit and human tissues according to the protocol described by Boolell et al; from tissue; host or cells: human tissue, homogenate supernatant fractionated on Mono Q
The test is described as follows: PDE assay: inhibition of PDEV isolated from human tissue. In kind it is biochemical. The conditions noted are these: 10 μM test compound. As to the method:
Briefly, rabbit or human tissues were homogenized in an ice-cold buffer solution containing 20 mM HEPES (pH 7.2), 0.25M sucrose, 1 mM EDTA, and 1 mM phenylmethylsulphonyl fluoride (PMSF). The homogenates were centrifuged at 100,000 g for 60 minutes at 4° C. The supernatant was filtered through […] filter and loaded on a Pharmacia Mono Q anion exchange column (1 ml bed volume) that was equilibrated with 20 mM HEPES, 1 mM EDTA and 0.5 mM PMSF. After washing out unbound proteins, the enzymes were eluted with a linear gradient of 100-600 mM NaCl in the same buffer (35 to 50 ml total, depending on the tissue. Enzymes from the skeletal muscle, corpus cavernosum, retina, heart and platelet were eluted with 35, 40, 45, 50, and 50 ml respectively.) The column was run at a flow rate of 1 ml/min and 1 ml fractions were collected. The fractions comprising various PDE activities were pooled separately and used in later studies.
The assays were adapted to a 96-well format. The enzyme was assayed in 5 mM MgCl2, 15 mM Tris HCl (pH 7.4), 0.5 mg/ml bovine serum albumin, 1 μM cGMP or cAMP, 0.1 μCi [^3H]-cGMP or [^3H]-cAMP, and 2-10 μl of column elution. The total volume of the assay was 100 μl. The reaction mixture was incubated at 30° C. for 30 minutes. The reaction was stopped by boiling for 1 minute and then cooled down on ice. The resulting [^3H]5′-mononucleotides were further converted to uncharged [^3H]-nucleosides by adding 25 μl 1 mg/ml snake venom (Ophiophagus hannah) and incubating at 30° C. for 10 minute. The reaction was stopped by the addition of 1 ml Bio-Rad AG1-X2 resin slurry (1:3). All the charged nucleotides were bound by the resin and only uncharged [^3H]-nucleosides remained in the supernatant after centrifuging. An aliquot of 200 μl was taken and counted by liquid scintillation. PDE activity was expressed as pmol cyclic nucleotide hydrolyzed/min/ml of enzyme preparation.
Inhibitor studies were carried out in assay buffer with a final concentration of 10% DMSO.
The % inhibition of the maximum substrate conversion (by the enzyme in the absence of inhibitor) was calculated for each test compound concentration. Using GraphPad Prism's nonlinear regression analysis (sigmoidal dose response), the % inhibition vs log of the test compound concentration was plotted to determine the IC50. Under conditions where substrate concentration <<Km of the enzyme (Km=substrate concentration at which half of the maximal velocity of the enzyme is achieved), Ki is equivalent to the IC50 value.
Unless otherwise noted, PDEV inhibitory activities were measured using human tissue. The abbreviation “stereo” refers to the stereogenic configuration, the abbreviation “Rac” shall denote a racemic mixture.
Regarding `O=c1c2c([nH]c3ccccc13)C(c1ccc3c(c1)CCO3)NC2` (racemic) [Compound 17, 1,2,3,4-Tetrahydro-3-(2,3-dihydrobenzofuran-5-yl)-9H-pyrrolo-[3,4-b]quinolin-9-one, hydrochloride salt], the inhibition at 10 µM was determined as 65%.

The same test, now with this note: PDEV inhibitory activity.
On to `COc1ccc(-c2cnc(N3Cc4c([nH]c5ccccc5c4=O)C3c3ccc4c(c3)OCO4)nc2)cc1OC` (racemic) [Compound 1, 1,2,3,4-Tetrahydro-2-[5-(3,4-dimethoxyphenyl)-pyrimidin-2-yl]-3-(3,4-methylenedioxyphenyl)-9H-pyrrolo-[3,4-b]quinolin-9-one], for which it took 0.165 nM to reach half-maximal inhibition (IC50).

Molecule `O=c1c2c([nH]c3ccccc13)C(c1ccc3c(c1)OCO3)NC2` (racemic) [Compound 4, 1,2,3,4-Tetrahydro-3-(3,4-methylenedioxyphenyl)-9H-pyrrolo-[3,4-b]quinolin-9-one, hydrochloride salt] gave an IC50 of 664 nM. On the same count and under the same terms, next, `O=c1c2c([nH]c3ccccc13)C(c1ccc3c(c1)OCO3)N(Cc1ccncc1)C2` (racemic) [Compound 5, 1,2,3,4-Tetrahydro-3-(3,4-methylenedioxyphenyl)-2-(pyridin-4-yl)methyl-9H-pyrrolo-[3,4-b]quinolin-9-one]: 688 nM; `COC(=O)c1ccc(/C=C/C(=O)N2Cc3c([nH]c4ccccc4c3=O)C2c2ccc3c(c2)OCO3)cc1` (racemic) [Compound 6, (E)-4-[3-Oxo-3-[1,2,3,4-tetrahydro-3-(3,4-methylenedioxyphenyl)-9H-pyrrolo-[3,4-b]quinolin-9-one-2-yl]-1-propenyl]benzoic Acid Methyl Ester]: 0.507 nM; `Cc1ccc(-c2cnc(N3Cc4c([nH]c5ccccc5c4=O)C3c3ccc4c(c3)OCO4)nc2)cc1` (racemic) [Compound 7, 1,2,3,4-Tetrahydro-2-[5-(4-methylphenyl)-pyrimidin-2-yl]-3-(3,4-methylenedioxyphenyl)-9H-pyrrolo-[3,4-b]quinolin-9-one]: 0.325 nM. Consider `O=C(O)c1ccc(/C=C/C(=O)N2Cc3c([nH]c4ccccc4c3=O)C2c2ccc3c(c2)OCO3)cc1` (racemic) [Compound 8, (E)-4-[3-Oxo-3-[1,2,3,4-tetrahydro-3-(3,4-methylenedioxyphenyl)-9H-pyrrolo-[3,4-b]quinolin-9-one-2-yl]-1-propenyl]benzoic acid], for which the IC50 is 0.828 nM. The same measure, in the same setting: next, `O=C(c1cc2ccc(O)cc2o1)N1Cc2c(nc3ccccc3c2O)C1c1ccc2c(c1)OCO2` (racemic) [Compound 9, 1,2,3,4-Tetrahydro-3-(3,4-methylenedioxyphenyl)-2-(6-hydroxy-2-benzo-furoyl)-9H-pyrrolo[3,4-b]quinolin-9-one]: 0.46 nM. Turning to `Oc1c2c(nc3ccccc13)C(c1ccc3c(c1)OCO3)N(c1ncccn1)C2` (racemic) [Compound 11, 1,2,3,4-Tetrahydro-2-(pyrimidin-2-yl)-3-(3,4-methylenedioxyphenyl)-9H-pyrrolo-[3,4-b]quinolin-9-one], the IC50 was 3.73 nM. In turn, `O=C(c1ccc(-c2ccc([N+](=O)[O-])cc2)o1)N1Cc2c(nc3ccccc3c2O)C1c1ccc2c(c1)OCO2` (racemic) [Compound 16, 1,2,3,4-Tetrahydro-3-(3,4-methylenedioxyphenyl)-2-[5-(4-nitrophenyl)-furoyl]-9H-pyrrolo[3,4-b]quinolin-9-one] registered a half-inhibitory concentration (IC50) of 0.39 nM. In turn, `COC(=O)c1ccc(/C=C/C(=O)N2Cc3c([nH]c4ccccc4c3=O)C2c2ccc3c(c2)CCO3)cc1` (racemic) [Compound 20, (E)-4-[3-Oxo-3-[1,2,3,4-tetrahydro-3-(2,3-dihydrobenzofuran-5-yl)-9H-pyrrolo-[3,4-b]quinolin-9-one-2-yl]-1-propenyl]benzoic acid, methyl ester] returned an IC50 of 0.53 nM. On the same count and under the same terms, next, `O=C(c1ccc(-c2ccc(O)cc2)o1)N1Cc2c(nc3ccccc3c2O)C1c1ccc2c(c1)OCO2` (racemic) [Compound 22, 1,2,3,4-Tetrahydro-3-(3,4-methylenedioxyphenyl)-2-[5-(4-hydroxyphenyl)furoyl]-9H-pyrrolo[3,4-b]-quinolin-9-one]: 0.86 nM. Same read-out and setting: next, `O=C(c1cccnc1O)N1Cc2c([nH]c3ccccc3c2=O)C1c1ccc2c(c1)OCO2` (racemic) [Compound 25, 1,2,3,4-Tetrahydro-3-(3,4-methylenedioxyphenyl)-2-[2-hydroxynicotinoyl)-9H-pyrrolo[3,4-b]-quinolin-9-one]: 1.57 nM; `Nc1ccc(-c2ccc(C(=O)N3Cc4c([nH]c5ccccc5c4=O)C3c3ccc4c(c3)OCO4)o2)cc1` (racemic) [Compound 26, 1,2,3,4-tetrahydro-3(3,4-methylenedioxyphenyl)2-[5-(4-aminophenyl)-furoyl]-9H-pyrrolo[3,4-b]quinolin-9-one]: 1.92 nM. Still for that read-out and setting: next, `O=C(c1ccc(-c2ccc(OCCN3CCCC3)cc2)o1)N1Cc2c(nc3ccccc3c2O)C1c1ccc2c(c1)OCO2` (racemic) [Compound 45, 1,2,3,4-Tetrahydro-3-(3.4-methylenedioxyphenyl)-2-(5-(4-(2-(1-pyrrolidinyl)ethoxy)phenyl)-furoyl)-9H-pyrrolo[3,4-b]quinolin-9-one]: 1.33 nM.

For the molecule `O=c1c2c([nH]c3ccccc13)C(c1ccc3c(c1)OCO3)N(Cc1ccccc1)C2` (racemic) [Compound 54, 1,2,3,4-Tetrahydro-2-benzyl-3-(3,4-methylenedioxyphenyl)-9H-pyrrolo-[3,4-b]quinolin-9-one], half-maximal inhibition (IC50) required 234 nM.

For `O=c1c2c([nH]c3ccccc13)C(c1ccc3c(c1)OCO3)N(c1ncc(Br)cn1)C2` (racemic) [Compound 55, 1,2,3,4-Tetrahydro-2-(5-bromopyrimidin-2-yl)-3-(3,4-methylenedioxyphenyl)-9H-pyrrolo-[3,4-b]quinolin-9-one], the midpoint of inhibition, the IC50, lay at 4.48 nM. Molecule `Oc1c2c(nc3ccccc13)C(c1ccc3c(c1)OCO3)N(c1ncc(-c3cccnc3)cn1)C2` (racemic) [Compound 56, 1,2,3,4-Tetrahydro-2-[5-(3-pyridinyl)-pyrimidin-2-yl]-3-(3,4-methylenedioxyphenyl)-9H-pyrrolo-[3,4-b]quinolin-9-one] returned an IC50 of 1.24 nM.

Regarding `O=c1c2c([nH]c3ccccc13)C(c1ccc3c(c1)OCO3)N(c1ncc(-c3ccncc3)cn1)C2` (racemic) [Compound 57, 1,2,3,4-Tetrahydro-2-[5-(4-pyridinyl)-pyrimidin-2-yl]-3-(3,4-methylenedioxyphenyl)-9H-pyrrolo-[3,4-b]quinolin-9-one], the IC50 worked out at 0.84 nM. As for `Oc1c2c(nc3ccccc13)C(c1ccc3c(c1)CCO3)N(c1ncc(Br)cn1)C2` (racemic) [Compound 74], the IC50 stood at 1.9 nM. The same measure, in the same setting: the same measure for `O=c1c2c([nH]c3ccccc13)C(c1ccc3c(c1)OCO3)N(c1ncc(-c3ccncc3)cn1)C2` (racemic) [Compound 99]: 0.84 nM. `Oc1c2c(nc3ccccc13)C(c1ccc3c(c1)OCO3)N(c1ncc(-c3cccnc3)cn1)C2` (racemic) [Compound 100]: the IC50 was determined as 0.52 nM. `O=C(c1ccc(-c2ccccc2)o1)N1Cc2c(nc3ccccc3c2O)C1c1ccc2c(c1)OCO2` (racemic) [Compound 110]: the IC50 is 0.755 nM. As to `O=C(c1ccc(-c2ccsc2)o1)N1Cc2c(nc3ccccc3c2O)C1c1ccc2c(c1)OCO2` (racemic) [Compound 112], the 50% inhibitory concentration (IC50) was 0.699 nM. In turn, `O=C(c1ccc(-c2ccco2)o1)N1Cc2c(nc3ccccc3c2O)C1c1ccc2c(c1)OCO2` (racemic) [Compound 117] registered an IC50 of 4.75 nM. Still for that read-out and setting: the same measure for `Oc1c2c(nc3ccccc13)C(c1ccc3c(c1)CCO3)N(c1ncccn1)C2` (racemic) [Compound 123, 3-(2,3-Dihydro-benzofuran-5-yl)-2-pyrimidin-2-yl-1,2,3,4-tetrahydro-pyrrolo[3,4-b]quinolin-9-one]: 12.8 nM; for `O=C(c1ccc(-c2cccc(C(F)(F)F)c2)o1)N1Cc2c([nH]c3ccccc3c2=O)C1c1ccc2c(c1)OCO2` (stereo not drawn) [Compound 13, 1,2,3,4-Tetrahydro-3-(3,4-methylenedioxyphenyl)-2-[5-(3-trifluoromethylphenyl)furoyl]-9H-pyrrolo-[3,4-b]quinolin-9-one]: 0.227 nM.
